Laboratory results from publication PMC10954734, “Structure of antiviral drug bulevirtide bound to hepatitis B and D virus receptor protein NTCP” (Nature Communications, 2024).

Experiments:
human NTCP = molecular target: T1, human NTCP (Homo sapiens, UniProt Q14973); assay: preS1-AX568 binding to HEK-NTCP cells (and its inhibition by TC); type: cell-based; conditions: preincubation with 250 µM TC
T1 construct: The full-length wild-type human NTCP gene (UniProt ID: Q14973); expressed in transfected cells
T1 sequence (Q14973 1-349): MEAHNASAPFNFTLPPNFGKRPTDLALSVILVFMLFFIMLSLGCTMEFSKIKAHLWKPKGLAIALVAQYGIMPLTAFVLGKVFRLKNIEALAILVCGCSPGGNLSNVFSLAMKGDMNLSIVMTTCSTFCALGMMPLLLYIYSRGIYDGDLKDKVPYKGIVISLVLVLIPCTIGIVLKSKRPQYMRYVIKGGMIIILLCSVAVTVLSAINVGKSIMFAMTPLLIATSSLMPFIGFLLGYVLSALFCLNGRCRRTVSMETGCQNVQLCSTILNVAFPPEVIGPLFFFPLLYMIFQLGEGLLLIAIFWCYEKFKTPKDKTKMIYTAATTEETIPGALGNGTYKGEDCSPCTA
Experimental: Human embryonic kidney Flp-In T-Rex 293 cells (Thermo Fisher Scientific, R78007, hereafter referred to as non-NTCP expressing HEK293 cells) stably expressing the human NTCP protein were generated according to the manufacturer’s guidelines as reported before[62] and are hereafter referred to as HEK-NTCP cells. […] For induction of NTCP expression, HEK-NTCP cells were incubated with 1 μg/mL tetracycline (Carl Roth, HP63.1)[62]. […] Inhibitor preincubation was performed over 5 min at 37 °C, consistent with previously published data[64]. Quantification of relative fluorescence was assessed at 570 nm excitation and 615 nm emission on a fluorescence microplate reader (TECAN Life Sciences).

Gly158Arg human NTCP = conditions: ref [54]; cited from earlier work
Text: (§1) We aligned the sequence of human NTCP to that of Cynomolgus monkey and Common squirrel monkey, which are representatives of the Old and New World monkeys, respectively (Fig. 6a and Supplementary Fig. 6).

[1] = system: Gly158Arg Common squirrel monkey NTCP; conditions: ref [54]; cited from earlier work
Text: as §1

[2] = system: SVPs from patient ID1 (HBV GtD); assay: Binding of nanodisc-reconstituted NTCP-eYFP to SVPs of patient ID1 (GtD); conditions: 25–100 nM
Experimental: (§2) The lipids were then mixed with detergent-purified NTCP and incubated at room temperature for 5 min with gentle agitation. Next, membrane scaffold protein (MSP1D1) was added to the mixture and incubated for 20 min at room temperature. […] Bio-Beads were removed by passing through a gravity column (Bio-Rad), and the mixture was briefly spun at 4000 × g at 4 °C to remove excess lipids. […] Peak fractions containing nanodisc-reconstituted NTCP were collected and concentrated.
(§3) Subviral particles (SVPs) were isolated from plasma of two chronic HBV-infected patients by three consecutive ultracentrifugation steps according to published protocols[13]. Briefly, SVP were separated from virions using rate zonal ultracentrifugation through a sucrose density gradient. SVP-containing fractions were pooled and further purified using caesium chloride (CsCl) flotation ultracentrifugation. Pooled SVP-fractions were further purified using a second sucrose density gradient and concentrated by ultrafiltration. […] For fluorescence measurement, 100 μL HBS buffer was added to each well and the fluorescence intensity of eYFP was detected at 485 nm excitation and 535 nm emission on a fluorescence microplate reader (TECAN Life Sciences).

[3] = system: SVPs from patient K826 (HBV GtA); assay: Binding of nanodisc-reconstituted NTCP-eYFP to SVPs of patient K826 (GtA); conditions: 25–100 nM
Experimental: as §2, §3

Compound | block of preS1-AX568 binding to NTCP (in words) (human NTCP) | TC transport, effect of Gly158Arg mutation (Gly158Arg human NTCP) | TC transport, effect of Gly158Arg mutation [1] | binding to GtD SVPs (in words) [2] | binding to GtA SVPs (in words) [3]
C[C@H](CCC(=O)NCCS(=O)(=O)O)[C@H]1CC[C@H]2[C@@H]3[C@H](O)C[C@@H]4C[C@H](O)CC[C@]4(C)[C@H]3C[C@H](O)[C@]12C [TC, taurocholic acid] | can be blocked | maintaining the transport activity of NTCP for TC | maintaining the transport activity of NTCP for TC |  | 
NTCP: nanodisc-reconstituted, eYFP-labeled wild-type human NTCP |  |  |  | concentration-dependent binding | concentration-dependent binding
